In ChEMBL document CHEMBL3414527, “Engineering potent and selective analogues of GpTx-1, a tarantula venom peptide antagonist of the Na(V)1.7 sodium channel” (J Med Chem, 2015):
Bridge positions count the residues as written; N and C are the ends. Peptide text beside a SMILES is read from it.

How the values were obtained:
[1] = biological target: Sodium channel protein type 5 subunit alpha (Homo sapiens, UniProt Q14524); test: Inhibition of human NaV1.5 at -140 mV holding potential by whole-cell patch clamp assay
Sodium channel protein type 5 subunit alpha, sequence (Q14524 whole entry): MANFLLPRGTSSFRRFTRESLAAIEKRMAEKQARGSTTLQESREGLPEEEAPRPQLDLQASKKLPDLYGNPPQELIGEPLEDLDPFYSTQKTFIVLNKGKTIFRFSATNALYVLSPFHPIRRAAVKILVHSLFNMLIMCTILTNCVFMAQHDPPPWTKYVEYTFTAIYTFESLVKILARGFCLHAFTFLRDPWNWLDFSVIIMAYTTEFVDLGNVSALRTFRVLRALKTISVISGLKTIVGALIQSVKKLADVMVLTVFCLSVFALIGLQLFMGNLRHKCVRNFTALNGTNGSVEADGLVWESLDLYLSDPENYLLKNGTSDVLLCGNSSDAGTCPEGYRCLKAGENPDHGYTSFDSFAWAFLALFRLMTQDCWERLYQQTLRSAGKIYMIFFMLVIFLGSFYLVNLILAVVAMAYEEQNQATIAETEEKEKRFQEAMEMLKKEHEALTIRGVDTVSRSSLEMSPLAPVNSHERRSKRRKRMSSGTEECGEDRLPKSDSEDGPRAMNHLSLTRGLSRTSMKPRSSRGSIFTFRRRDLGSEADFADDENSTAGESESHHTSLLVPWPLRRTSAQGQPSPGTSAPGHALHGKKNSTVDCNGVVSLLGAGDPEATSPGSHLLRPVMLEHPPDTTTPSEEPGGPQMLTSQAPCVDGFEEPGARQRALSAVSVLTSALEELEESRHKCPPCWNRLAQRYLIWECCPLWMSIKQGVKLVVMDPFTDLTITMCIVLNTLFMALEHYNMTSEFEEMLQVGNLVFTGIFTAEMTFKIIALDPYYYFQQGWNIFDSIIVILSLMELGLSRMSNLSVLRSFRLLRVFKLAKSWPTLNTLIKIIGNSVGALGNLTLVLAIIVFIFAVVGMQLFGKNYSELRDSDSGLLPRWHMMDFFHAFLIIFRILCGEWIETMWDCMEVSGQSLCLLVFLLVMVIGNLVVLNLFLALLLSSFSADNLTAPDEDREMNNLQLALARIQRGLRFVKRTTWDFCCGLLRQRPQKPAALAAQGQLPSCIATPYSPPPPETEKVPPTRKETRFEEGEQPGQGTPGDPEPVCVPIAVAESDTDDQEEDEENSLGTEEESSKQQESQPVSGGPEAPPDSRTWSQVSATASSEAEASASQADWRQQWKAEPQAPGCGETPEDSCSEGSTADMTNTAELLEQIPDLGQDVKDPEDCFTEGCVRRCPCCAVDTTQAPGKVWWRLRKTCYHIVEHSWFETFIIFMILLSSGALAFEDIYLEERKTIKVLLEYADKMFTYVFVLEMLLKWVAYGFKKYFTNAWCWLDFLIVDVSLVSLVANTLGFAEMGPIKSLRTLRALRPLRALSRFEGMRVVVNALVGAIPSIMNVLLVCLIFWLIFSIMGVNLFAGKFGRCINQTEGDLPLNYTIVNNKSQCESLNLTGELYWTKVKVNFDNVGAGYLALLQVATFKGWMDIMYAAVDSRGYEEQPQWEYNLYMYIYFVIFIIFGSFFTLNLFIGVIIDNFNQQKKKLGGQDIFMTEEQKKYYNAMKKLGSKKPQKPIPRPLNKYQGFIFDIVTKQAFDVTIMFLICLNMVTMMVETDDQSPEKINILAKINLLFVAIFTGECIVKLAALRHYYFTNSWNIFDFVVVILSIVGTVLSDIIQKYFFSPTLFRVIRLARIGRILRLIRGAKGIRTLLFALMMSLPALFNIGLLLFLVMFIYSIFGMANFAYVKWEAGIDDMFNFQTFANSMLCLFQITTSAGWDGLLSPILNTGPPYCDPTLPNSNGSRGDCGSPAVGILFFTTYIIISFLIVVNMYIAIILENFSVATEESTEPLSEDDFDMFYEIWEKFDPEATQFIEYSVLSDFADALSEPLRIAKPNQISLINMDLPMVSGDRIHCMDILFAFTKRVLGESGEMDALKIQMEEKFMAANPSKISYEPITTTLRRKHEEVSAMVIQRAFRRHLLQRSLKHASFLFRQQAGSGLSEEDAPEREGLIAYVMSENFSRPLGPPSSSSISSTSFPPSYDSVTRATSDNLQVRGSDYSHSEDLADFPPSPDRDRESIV

[2] = biological target: Sodium channel protein type 9 subunit alpha (Homo sapiens, UniProt Q15858); test: Inhibition of human NaV1.7 at -140 mV holding potential by whole-cell patch clamp assay
Sodium channel protein type 9 subunit alpha, sequence (Q15858 whole entry): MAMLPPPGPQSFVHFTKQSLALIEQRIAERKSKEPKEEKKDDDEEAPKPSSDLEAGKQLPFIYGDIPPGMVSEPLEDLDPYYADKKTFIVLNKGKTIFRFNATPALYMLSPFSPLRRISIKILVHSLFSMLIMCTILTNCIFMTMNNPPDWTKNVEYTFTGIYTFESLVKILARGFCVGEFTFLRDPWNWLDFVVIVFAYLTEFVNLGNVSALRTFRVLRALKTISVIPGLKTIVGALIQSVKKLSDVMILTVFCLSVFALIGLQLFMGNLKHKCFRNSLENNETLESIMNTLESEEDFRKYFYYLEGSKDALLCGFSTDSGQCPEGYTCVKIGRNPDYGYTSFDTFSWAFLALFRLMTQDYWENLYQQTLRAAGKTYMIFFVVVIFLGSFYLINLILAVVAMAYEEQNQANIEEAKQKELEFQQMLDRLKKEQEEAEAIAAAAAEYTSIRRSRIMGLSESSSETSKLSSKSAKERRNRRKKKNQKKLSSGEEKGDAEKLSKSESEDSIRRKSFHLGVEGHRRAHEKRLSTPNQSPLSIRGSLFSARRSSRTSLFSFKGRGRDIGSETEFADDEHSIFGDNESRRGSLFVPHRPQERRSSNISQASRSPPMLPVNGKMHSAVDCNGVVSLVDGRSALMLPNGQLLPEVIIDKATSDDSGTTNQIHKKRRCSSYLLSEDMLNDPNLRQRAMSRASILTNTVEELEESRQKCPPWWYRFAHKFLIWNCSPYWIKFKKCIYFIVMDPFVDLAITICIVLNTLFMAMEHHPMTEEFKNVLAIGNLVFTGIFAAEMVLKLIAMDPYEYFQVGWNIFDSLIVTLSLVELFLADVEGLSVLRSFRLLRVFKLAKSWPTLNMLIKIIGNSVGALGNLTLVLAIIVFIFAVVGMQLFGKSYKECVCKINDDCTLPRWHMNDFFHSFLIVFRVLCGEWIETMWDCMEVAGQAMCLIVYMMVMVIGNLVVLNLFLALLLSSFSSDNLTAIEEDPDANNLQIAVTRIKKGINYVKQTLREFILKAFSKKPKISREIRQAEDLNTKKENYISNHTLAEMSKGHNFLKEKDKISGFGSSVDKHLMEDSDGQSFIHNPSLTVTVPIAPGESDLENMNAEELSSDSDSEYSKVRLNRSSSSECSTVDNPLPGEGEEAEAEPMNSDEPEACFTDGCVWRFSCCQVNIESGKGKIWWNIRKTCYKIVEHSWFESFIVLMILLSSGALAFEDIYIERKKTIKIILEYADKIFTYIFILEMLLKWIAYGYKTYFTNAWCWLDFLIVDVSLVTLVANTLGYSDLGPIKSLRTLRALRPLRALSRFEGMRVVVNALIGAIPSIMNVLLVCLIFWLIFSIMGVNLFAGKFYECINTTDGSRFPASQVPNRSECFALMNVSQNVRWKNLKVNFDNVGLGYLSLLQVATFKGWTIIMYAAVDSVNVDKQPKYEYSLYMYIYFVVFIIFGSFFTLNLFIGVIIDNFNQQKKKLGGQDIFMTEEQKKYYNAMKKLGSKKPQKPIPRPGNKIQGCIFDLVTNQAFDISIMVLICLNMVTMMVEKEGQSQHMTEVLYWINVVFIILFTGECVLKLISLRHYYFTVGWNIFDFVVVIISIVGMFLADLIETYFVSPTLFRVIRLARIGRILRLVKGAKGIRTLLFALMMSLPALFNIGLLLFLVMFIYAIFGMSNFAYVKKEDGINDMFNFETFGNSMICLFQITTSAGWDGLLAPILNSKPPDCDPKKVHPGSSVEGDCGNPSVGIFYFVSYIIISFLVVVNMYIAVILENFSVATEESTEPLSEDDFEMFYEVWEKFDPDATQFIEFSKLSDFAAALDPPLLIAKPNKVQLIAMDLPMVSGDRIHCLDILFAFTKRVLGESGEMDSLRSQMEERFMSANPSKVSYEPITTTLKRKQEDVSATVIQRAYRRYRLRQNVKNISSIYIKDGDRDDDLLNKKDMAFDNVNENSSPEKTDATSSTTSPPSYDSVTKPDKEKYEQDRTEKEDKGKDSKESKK

| SMILES | IC50 [1] [nM] | IC50 [2] [nM] |
| --- | --- | --- |
| CC[C@@H]1NC(=O)CNC(=O)[C@H](CC(C)C)NC(=O)[C@@H](NC(=O)[C@@H](N)CC(=O)O)CSSC[C@@H]2NC(=O)[C@@H]3CSSC[C@@H](C(=O)N[C@@H](CCCCN)C(=O)N[C@@H](Cc4ccc(O)cc4)C(=O)N[C@H](C(=O)N[C@@H](Cc4ccccc4)C(N)=O)C(C)C)NC(=O)[C@H](Cc4c[nH]c5ccccc45)NC(=O)[C@H](CCCCN)NC(=O)[C@H](Cc4cnc[nH]4)NC(=O)[C@H]([C@@H](C)O)NC(=O)[C@H](CCCNC(=N)N)NC(=O)[C@H](CO)NC(=O)[C@H](CSSC[C@H](NC(=O)[C@H](CCCCN)NC(=O)[C@H](CCCNC(=N)N)NC(=O)[C@H](CCSC)NC1=O)C(=O)N[C@@H]([C@@H](C)CC)C(=O)N1CCC[C@H]1C(=O)N[C@@H](CC(=O)O)C(=O)N[C@@H](CC(N)=O)C(=O)N[C@@H](CC(=O)O)C(=O)N[C@@H](CCCCN)C(=O)N3)NC(=O)[C@H](C(C)C)NC(=O)[C@H](CC(C)C)NC(=O)[C@H](CC(N)=O)NC(=O)[C@@H]1CCCN1C(=O)[C@H](CCCNC(=N)N)NC2=O | > 10000 | 79 |
| CC[C@H](C)[C@@H]1NC(=O)[C@@H]2CSSC[C@@H]3NC(=O)[C@H](C(C)C)NC(=O)[C@H](CC(C)C)NC(=O)[C@H](CC(N)=O)NC(=O)[C@@H]4CCCN4C(=O)[C@H](CCCNC(=N)N)NC(=O)[C@H](CSSC[C@H](NC(=O)[C@@H](N)CC(=O)O)C(=O)N[C@@H](CC(C)C)C(=O)NCC(=O)N[C@@H](Cc4ccccc4)C(=O)N[C@@H](Cc4cccc5ccccc45)C(=O)N[C@@H](CCCNC(=N)N)C(=O)N[C@@H](CCCCN)C(=O)N2)NC(=O)[C@H](CSSC[C@@H](C(=O)N[C@@H](CCCCN)C(=O)N[C@@H](Cc2ccc(O)cc2)C(=O)N[C@H](C(=O)N[C@@H](Cc2ccccc2)C(N)=O)C(C)C)NC(=O)[C@H](Cc2c[nH]c4ccccc24)NC(=O)[C@H](CCCCN)NC(=O)[C@H](Cc2cnc[nH]2)NC(=O)[C@H]([C@@H](C)O)NC(=O)[C@H](CCCNC(=N)N)NC(=O)[C@H](CO)NC3=O)NC(=O)[C@H](CCCCN)NC(=O)[C@H](CC(=O)O)NC(=O)[C@H](CC(N)=O)NC(=O)[C@H](CC(=O)O)NC(=O)[C@@H]2CCCN2C1=O | 400 | 4 |
| CC[C@H](C)[C@@H]1NC(=O)[C@@H]2CSSC[C@@H]3NC(=O)[C@H](C(C)C)NC(=O)[C@H](CC(C)C)NC(=O)[C@H](CC(N)=O)NC(=O)[C@@H]4CCCN4C(=O)[C@H](CCCNC(=N)N)NC(=O)[C@H](CSSC[C@H](NC(=O)[C@@H](N)CC(=O)O)C(=O)N[C@@H](CC(C)C)C(=O)NCC(=O)N[C@@H](CC4CCCCC4)C(=O)N[C@@H](CCSC)C(=O)N[C@@H](CCCNC(=N)N)C(=O)N[C@@H](CCCCN)C(=O)N2)NC(=O)[C@H](CSSC[C@@H](C(=O)N[C@@H](CCCCN)C(=O)N[C@@H](Cc2ccc(O)cc2)C(=O)N[C@H](C(=O)N[C@@H](Cc2ccccc2)C(N)=O)C(C)C)NC(=O)[C@H](Cc2c[nH]c4ccccc24)NC(=O)[C@H](CCCCN)NC(=O)[C@H](Cc2cnc[nH]2)NC(=O)[C@H]([C@@H](C)O)NC(=O)[C@H](CCCNC(=N)N)NC(=O)[C@H](CO)NC3=O)NC(=O)[C@H](CCCCN)NC(=O)[C@H](CC(=O)O)NC(=O)[C@H](CC(N)=O)NC(=O)[C@H](CC(=O)O)NC(=O)[C@@H]2CCCN2C1=O | 3500 | 4 |
| CC[C@H](C)[C@@H]1NC(=O)[C@@H]2CSSC[C@@H]3NC(=O)[C@H](C(C)C)NC(=O)[C@H](CC(C)C)NC(=O)[C@H](CC(N)=O)NC(=O)[C@@H]4CCCN4C(=O)[C@H](CCCNC(=N)N)NC(=O)[C@H](CSSC[C@H](NC(=O)[C@@H](N)CC(=O)O)C(=O)N[C@@H](CC(C)C)C(=O)NCC(=O)N(C)[C@@H](CC(C)C)C(=O)N[C@@H](CCSC)C(=O)N[C@@H](CCCNC(=N)N)C(=O)N[C@@H](CCCCN)C(=O)N2)NC(=O)[C@H](CSSC[C@@H](C(=O)N[C@@H](CCCCN)C(=O)N[C@@H](Cc2ccc(O)cc2)C(=O)N[C@H](C(=O)N[C@@H](Cc2ccccc2)C(N)=O)C(C)C)NC(=O)[C@H](Cc2c[nH]c4ccccc24)NC(=O)[C@H](CCCCN)NC(=O)[C@H](Cc2cnc[nH]2)NC(=O)[C@H]([C@@H](C)O)NC(=O)[C@H](CCCNC(=N)N)NC(=O)[C@H](CO)NC3=O)NC(=O)[C@H](CCCCN)NC(=O)[C@H](CC(=O)O)NC(=O)[C@H](CC(N)=O)NC(=O)[C@H](CC(=O)O)NC(=O)[C@@H]2CCCN2C1=O | > 10000 | 25 |
| CC[C@H](C)[C@@H]1NC(=O)[C@@H]2CSSC[C@@H]3NC(=O)[C@H](C(C)C)NC(=O)[C@H](CC(C)C)NC(=O)[C@H](CC(N)=O)NC(=O)[C@@H]4CCCN4C(=O)[C@H](CCCNC(=N)N)NC(=O)[C@H](CSSC[C@H](NC(=O)[C@@H](N)CC(=O)O)C(=O)N[C@@H](CC(C)C)C(=O)NCC(=O)N[C@@H](Cc4ccccc4)C(=O)N[C@@H](CCSC)C(=O)N[C@@H](CCCNC(=N)N)C(=O)N[C@@H](CCCCN)C(=O)N2)NC(=O)[C@H](CSSC[C@@H](C(=O)N[C@@H](CCCCN)C(=O)N[C@@H](Cc2ccc(O)cc2)C(=O)N[C@H](C(=O)N[C@@H](Cc2ccccc2)C(N)=O)C(C)C)NC(=O)[C@H](Cc2c[nH]c4ccccc24)NC(=O)[C@H](CCCCN)NC(=O)[C@H](Cc2cnc[nH]2)NC(=O)[C@H]([C@@H](C)O)NC(=O)[C@H](C)NC(=O)[C@H](CO)NC3=O)NC(=O)[C@H](CCCCN)NC(=O)[C@H](CC(=O)O)NC(=O)[C@H](CC(N)=O)NC(=O)[C@H](CC(=O)O)NC(=O)[C@@H]2CCCN2C1=O (H-DCLGFMRKCIPDNDKCCRPNLVCSATHKWCKYVF-NH2; disulfide 2-17, 9-23, 16-30) | > 5000 | 330 |
| CC[C@H](C)[C@@H]1NC(=O)[C@@H]2CSSC[C@@H]3NC(=O)[C@H](C(C)C)NC(=O)[C@H](CC(C)C)NC(=O)[C@H](CC(N)=O)NC(=O)[C@@H]4CCCN4C(=O)[C@H](CCCNC(=N)N)NC(=O)[C@H](CSSC[C@H](NC(=O)[C@@H](N)CC(=O)O)C(=O)N[C@@H](CC(C)C)C(=O)NCC(=O)N[C@@H](C(C)C)C(=O)N[C@@H](CCSC)C(=O)N[C@@H](CCCNC(=N)N)C(=O)N[C@@H](CCCCN)C(=O)N2)NC(=O)[C@H](CSSC[C@@H](C(=O)N[C@@H](CCCCN)C(=O)N[C@@H](Cc2ccc(O)cc2)C(=O)N[C@H](C(=O)N[C@@H](Cc2ccccc2)C(N)=O)C(C)C)NC(=O)[C@H](Cc2c[nH]c4ccccc24)NC(=O)[C@H](CCCCN)NC(=O)[C@H](Cc2cnc[nH]2)NC(=O)[C@H]([C@@H](C)O)NC(=O)[C@H](CCCNC(=N)N)NC(=O)[C@H](CO)NC3=O)NC(=O)[C@H](CCCCN)NC(=O)[C@H](CC(=O)O)NC(=O)[C@H](CC(N)=O)NC(=O)[C@H](CC(=O)O)NC(=O)[C@@H]2CCCN2C1=O (H-DCLGVMRKCIPDNDKCCRPNLVCSRTHKWCKYVF-NH2; disulfide 2-17, 9-23, 16-30) | > 10000 | 19 |
| CC[C@H](C)[C@@H]1NC(=O)[C@@H]2CSSC[C@@H]3NC(=O)[C@H](C(C)C)NC(=O)[C@H](CC(C)C)NC(=O)[C@H](CC(N)=O)NC(=O)[C@@H]4CCCN4C(=O)[C@H](CCCNC(=N)N)NC(=O)[C@H](CSSC[C@H](NC(=O)[C@@H](N)CC(=O)O)C(=O)N[C@@H](CC(C)C)C(=O)NCC(=O)N[C@@H](CC(C)C)C(=O)N[C@@H](CCSC)C(=O)N[C@@H](CCCNC(=N)N)C(=O)N[C@@H](CCCCN)C(=O)N2)NC(=O)[C@H](CSSC[C@@H](C(=O)N[C@@H](CCCCN)C(=O)N[C@@H](Cc2ccc(O)cc2)C(=O)N[C@H](C(=O)N[C@@H](Cc2ccccc2)C(N)=O)C(C)C)NC(=O)[C@H](Cc2c[nH]c4ccccc24)NC(=O)[C@H](CCCCN)NC(=O)[C@H](Cc2cnc[nH]2)NC(=O)[C@H]([C@@H](C)O)NC(=O)[C@H](CCCNC(=N)N)NC(=O)[C@H](CO)NC3=O)NC(=O)[C@H](CCCCN)NC(=O)[C@H](CC(=O)O)NC(=O)[C@H](CC(N)=O)NC(=O)[C@H](CC(=O)O)NC(=O)[C@@H]2CCCN2C1=O (H-DCLGLMRKCIPDNDKCCRPNLVCSRTHKWCKYVF-NH2; disulfide 2-17, 9-23, 16-30) | > 10000 | 5 |
| CC[C@H](C)[C@@H]1NC(=O)[C@@H]2CSSC[C@@H]3NC(=O)[C@H](C(C)C)NC(=O)[C@H](CC(C)C)NC(=O)[C@H](CC(N)=O)NC(=O)[C@@H]4CCCN4C(=O)[C@H](CCCNC(=N)N)NC(=O)[C@H](CSSC[C@H](NC(=O)[C@@H](N)CC(=O)O)C(=O)N[C@@H](CC(C)C)C(=O)NCC(=O)N[C@@H](C(C)(C)C)C(=O)N[C@@H](CCSC)C(=O)N[C@@H](CCCNC(=N)N)C(=O)N[C@@H](CCCCN)C(=O)N2)NC(=O)[C@H](CSSC[C@@H](C(=O)N[C@@H](CCCCN)C(=O)N[C@@H](Cc2ccc(O)cc2)C(=O)N[C@H](C(=O)N[C@@H](Cc2ccccc2)C(N)=O)C(C)C)NC(=O)[C@H](Cc2c[nH]c4ccccc24)NC(=O)[C@H](CCCCN)NC(=O)[C@H](Cc2cnc[nH]2)NC(=O)[C@H]([C@@H](C)O)NC(=O)[C@H](CCCNC(=N)N)NC(=O)[C@H](CO)NC3=O)NC(=O)[C@H](CCCCN)NC(=O)[C@H](CC(=O)O)NC(=O)[C@H](CC(N)=O)NC(=O)[C@H](CC(=O)O)NC(=O)[C@@H]2CCCN2C1=O | > 10000 | 24 |
| CC[C@H](C)[C@@H]1NC(=O)[C@@H]2CSSC[C@@H]3NC(=O)[C@H](C(C)C)NC(=O)[C@H](CC(C)C)NC(=O)[C@H](CC(N)=O)NC(=O)[C@@H]4CCCN4C(=O)[C@H](CCCNC(=N)N)NC(=O)[C@H](CSSC[C@H](NC(=O)[C@@H](N)CC(=O)O)C(=O)N[C@@H](CC(C)C)C(=O)NCC(=O)N[C@@H](Cc4ccccc4)C(=O)N[C@@H](CCSC)C(=O)N[C@@H](CCCNC(=N)N)C(=O)N[C@@H](CCCCN)C(=O)N2)NC(=O)[C@H](CSSC[C@@H](C(=O)N[C@@H](CCCCN)C(=O)N[C@@H](Cc2ccc(O)cc2)C(=O)N[C@H](C(=O)N[C@@H](Cc2ccccc2)C(N)=O)C(C)C)NC(=O)[C@H](Cc2c[nH]c4ccccc24)NC(=O)[C@H](CCCCN)NC(=O)[C@H](Cc2cnc[nH]2)NC(=O)[C@H]([C@@H](C)O)NC(=O)[C@H](CCCNC(=N)N)NC(=O)[C@H](CO)NC3=O)NC(=O)[C@H](CCCCN)NC(=O)[C@H](CC(=O)O)NC(=O)[C@H](CC(N)=O)NC(=O)[C@H](CC(=O)O)NC(=O)[C@H](C)NC1=O (H-DCLGFMRKCIADNDKCCRPNLVCSRTHKWCKYVF-NH2; disulfide 2-17, 9-23, 16-30) | > 5000 | 170 |
